Two substances from patent US20100223737A1, “ORGANIC CATALYST WITH ENHANCED ENZYME COMPATIBLITY” (priority 2009, published 2010) can be followed below.

Common to all, as to type: biochemical
One test has as its system Duramyl. Briefly: Organic Catalyst/Enzyme Compatibility Test (alpha amylase activity assay), Duramyl. The settings on record: (Ac/Ab)x100; [Peracetic Acid]=5.0 ppm; [organic catalyst]=0.5 ppm; 40° C.; sample at 7 minutes 45 seconds.
The test system of a further test is Natalase. Put plainly: Organic Catalyst/Enzyme Compatibility Test (alpha amylase activity assay), Natalase. The following applies: (Ac/Ab)x100; [Peracetic Acid]=5.0 ppm; [organic catalyst]=0.5 ppm; 40° C.; sample at 7 minutes 45 seconds.
Test [1] relates to Termamyl, Duramyl and Natalase. Briefly: Organic Catalyst/Enzyme Compatibility Test, average of the three enzymes. The settings on record: ECV=(ECVter+ECVdur+ECVnat)/3; [Peracetic Acid]=5.0 ppm; [organic catalyst]=0.5 ppm.

In the case of “Sulfuric acid mono-[2-(3,4-dihydro-isoquinolin-2-yl)-1-(2-butyloctyloxymethyl)-ethyl]ester, internal salt [Entry 4]”, in the test on Duramyl, the “Enzyme Compatibility Values ECVdur” value came to 101. Also, in the test with Natalase, the “Enzyme Compatibility Values ECVnat” value was found to be 102. Moreover, the “Enzyme Compatibility Values ECV” value in test [1] was determined as 101.

As to “Sulfuric acid mono-[2-(3,4-dihydro-isoquinolin-2-yl)-1-(2-propylheptyloxymethyl)-ethyl]ester, internal salt [Entry 3]”, in the test with Duramyl, the “Enzyme Compatibility Values ECVdur” value is 101. In the test with Natalase, the “Enzyme Compatibility Values ECVnat” value stood at 99. The “Enzyme Compatibility Values ECV” value in test [1] was found to be 99.
